Data published in US20260231913A1, “CANCER MODEL ANIMAL AND METHOD FOR PRODUCING SAME” (ORBIO Corporation, priority 2023, published 2026).
Entries after “also recorded” stand apart in the source; their conditions may differ.

System: insulinoma cells MIN 6 cultured with L-glucose
Assay: Screening of substances that have anticancer effect in mice with intraperitoneally transplanted, L-glucose-cultured insulinoma cells MIN6
Format: in vivo, mouse
Method: Not only human cancer cells A549 but also mouse insulinoma cells MIN6 can be successfully cultured with the L-glucose medium. Mouse insulinoma cells MIN6 were cultured with the D-glucose medium. At a stage where the cells proliferated sufficiently, the medium was changed to the L-glucose medium. Subsequently, the medium change was performed frequently over 2 to 3 days. After almost all dead cells were confirmed to be removed, half the amount of the medium was changed every other day. The MIN6 cells were passaged once or twice using the L-glucose medium. After the culture for 8 to 11 days, the MIN 6 cells were trypsinized to form a cell suspension, which was transplanted at 5×10^6 cells (100 μL)/mouse subcutaneously into the right thigh of mice or at 1.0×10^5 cells (20 μL)/mouse into the abdominal cavity of mice without using Matrigel. As a control, MIN6 cells cultured with the normal D-glucose medium were also transplanted into mice. Because of rapid growth in the D-glucose medium, MIN6 cells were cultured with the D-glucose medium for 6 to 7 days and then transplanted at the same density as that of L-glucose-cultured cells subcutaneously into the right thigh of mice.
A method of screening substances that have anticancer effect was examined using, as a test substance, 2-deoxy-2-(2-oxo-2H-chromen-7-yl) amino-L-glucose (hereinafter referred to as “CLG”) (Japanese Patent No. 6566348), which is a molecule having a 7-OH-cuoumarin moiety bonded to L-glucose via a nitrogen atom.
On day 0, insulinoma cells MIN 6 cultured with L-glucose were intraperitoneally transplanted into 32 mice (four groups each including 8 mice). On day 1, the following groups were prepared: • 8 mice that were intraperitoneally administered every day until day 4 (over 4 minimum days) with a saline solution of CLG at a concentration of 53 mg/kg expected to be safe (CLG administration group); • 8 mice that were intraperitoneally administered only with a CLG-free saline every day until day 7 (over 7 days) (saline administration group); and • 8 mice that were intraperitoneally administered every day until day 7 (over 7 days) with 5-FU (which is used as a standard treatment for pancreatic cancer in Japan and the Europe and also used for treatment of neuroendocrine tumors such as insulinoma) at a high concentration of 25 mg/kg acceptable for nude mice (5-FU administration group).
All mice were euthanized at month 5 and subjected to pathological autopsy.

Compound | share of mice with normal blood sugar levels and no tumor (8 mice, 53 mg/kg intraperitoneally, day 1 to day 4, month 5) | overall anticancer effect in vivo (administered only for 4 days) | mice that maintained normal blood sugar levels until the final euthanasia, with no tumor on dissection (of the 8 mice, 53 mg/kg intraperitoneally every day, day 1 to day 4, euthanasia at month 5) | mice with a malignant tumor classifiable as neuroendocrine carcinoma (NEC) in the abdominal cavity (of the 8 mice, pathological examination of whole-body sections) | onset of reduction in blood sugar level compared with the saline administration group (remaining 4 of the 8 mice) | necrosis of the intraperitoneal tumor (the one mouse with a malignant tumor) | pathological finding in individual mice (25 mg/kg intraperitoneally every day, day 1 to day 7, 8 mice) | mice likely to have worsened conditions, dissected on day 10 and each found to have a tumor (25 mg/kg intraperitoneally every day, day 1 to day 7, of 8 mice, day 10)
2-deoxy-2-(2-oxo-2H-chromen-7-yl) amino-L-glucose [CLG] | 50% | significant effect in vivo | 4 mice | one | one week later | at least 90% |  | 
O=c1[nH]cc(F)c(=O)[nH]1 [5-FU, reference compound] |  |  |  |  |  |  | large, highly-atypical, significant liver metastasis with high malignancy; also recorded: invasive cancer in the smooth muscle around the transverse colon | 3 mice
